Molecular target: T1, LmCpfC (Listeria monocytogenes, UniProt Q8Y565)
T1 construct: gene cpfC; full length in pET21a(+) (BamHI/XhoI), C-terminal 6xHis-tag kept, vector N-terminal residues; E. coli BL21 Gold; 37 kDa theoretical, 38 kDa by MALS; monomer
T1 sequence (Q8Y565 1-309): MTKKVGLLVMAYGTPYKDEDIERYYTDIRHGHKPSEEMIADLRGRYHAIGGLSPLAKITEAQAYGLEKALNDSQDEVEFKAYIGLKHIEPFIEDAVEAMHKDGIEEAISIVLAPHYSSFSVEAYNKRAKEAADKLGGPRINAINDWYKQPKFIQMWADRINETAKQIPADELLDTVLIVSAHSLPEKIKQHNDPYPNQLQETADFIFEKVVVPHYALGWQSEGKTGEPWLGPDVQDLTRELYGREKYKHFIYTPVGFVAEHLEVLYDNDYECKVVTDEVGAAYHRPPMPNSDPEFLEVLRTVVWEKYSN
Experiment: stopped-flow UV-vis, […] nm, KD = koff/kon
Format: binding

Molecule `CC1=C(CCC(=O)O)c2cc3nc(cc4[nH]c(cc5[nH]c(cc1n2)c(C)c5CCC(=O)O)c(CCC(=O)O)c4C)C(CCC(=O)O)=C3C` [coproporphyrin III] has a Kd of 2000 nM.

From publication PMC7340540, “Crystal structures and calorimetry reveal catalytically relevant binding mode of coproporphyrin and coproheme in coproporphyrin ferrochelatase” (The FEBS journal, 2019)
